One assay concerns the target human orexin-1 receptor (Homo sapiens (Human), UniProt O43613). The experiment in a line: In vitro assay: intracellular calcium measurements (FLIPR), antagonistic activity. To be noted: CHO cells, 3 nM orexin-A, marked values are geometric means of n = 2-6, read-out: IC50 OX1. The assay is classed as cell-based. Background: A change in cytosolic calcium serves as a functional read-out for many receptors and channels.

The target of a further assay is human orexin-2 receptor (Homo sapiens (Human), UniProt O43614). Described as above. The assay is classed as cell-based. The following applies: CHO cells, 3 nM orexin-A, marked values are geometric means of n = 2-6, read-out: IC50 OX2.
Setting [1] is: compound incubation time of 10 min.

What is called IC50 is the concentration at which inhibition is half-maximal.

SMILES strings stand for the structures. Where two headings read alike, the source gives them in different places.

Sequence of human orexin-2 receptor (O43614 whole entry): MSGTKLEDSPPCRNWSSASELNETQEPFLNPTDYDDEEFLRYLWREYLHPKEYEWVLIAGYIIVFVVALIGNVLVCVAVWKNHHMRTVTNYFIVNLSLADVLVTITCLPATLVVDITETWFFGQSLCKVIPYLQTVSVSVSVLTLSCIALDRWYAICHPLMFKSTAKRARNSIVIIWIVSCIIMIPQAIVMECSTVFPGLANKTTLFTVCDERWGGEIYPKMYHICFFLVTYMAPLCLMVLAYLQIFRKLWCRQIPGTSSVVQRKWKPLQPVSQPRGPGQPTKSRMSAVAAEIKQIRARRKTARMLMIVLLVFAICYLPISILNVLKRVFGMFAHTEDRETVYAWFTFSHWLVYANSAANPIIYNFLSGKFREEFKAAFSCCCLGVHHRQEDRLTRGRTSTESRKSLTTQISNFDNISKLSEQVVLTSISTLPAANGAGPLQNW
Sequence of human orexin-1 receptor (O43613 whole entry): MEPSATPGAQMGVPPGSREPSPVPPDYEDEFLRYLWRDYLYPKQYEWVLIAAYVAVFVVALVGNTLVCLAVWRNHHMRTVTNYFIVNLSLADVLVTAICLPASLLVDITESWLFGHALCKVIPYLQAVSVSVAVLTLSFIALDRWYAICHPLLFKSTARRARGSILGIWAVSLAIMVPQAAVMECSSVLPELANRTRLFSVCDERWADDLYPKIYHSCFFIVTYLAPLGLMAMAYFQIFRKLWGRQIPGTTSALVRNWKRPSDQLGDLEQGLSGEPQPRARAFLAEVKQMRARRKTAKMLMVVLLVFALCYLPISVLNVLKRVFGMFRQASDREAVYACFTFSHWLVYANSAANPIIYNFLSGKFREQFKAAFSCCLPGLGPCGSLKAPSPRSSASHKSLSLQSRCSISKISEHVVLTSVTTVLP

Consider `COc1ccccc1C1CCCC(=O)N1Cc1ccc2ccccc2c1` (stereo not shown) [Example 236, 6-(2-methoxyphenyl)-1-(naphthalen-2-ylmethyl)piperidin-2-one], for which the IC50 at human orexin-1 receptor (setting [1]) is 1770 nM; on human orexin-2 receptor (setting [1]), 369 nM.
For `COc1ccccc1C1CCCC(=O)N1Cc1ccc(OC(F)(F)F)cc1` (stereo not shown) [Example 237, 6-(2-methoxyphenyl)-1-(4-(trifluoromethoxy)benzyl)piperidin-2-one], the 50% inhibitory concentration (IC50) at human orexin-1 receptor (setting [1]) was found to be 3490 nM; on human orexin-2 receptor (setting [1]), 635 nM.
With `COc1cccc(OC)c1C1CCCC(=O)N1Cc1ccc2ccccc2c1` (stereo not shown) [Example 238, 6-(2,6-dimethoxyphenyl)-1-(naphthalen-2-ylmethyl)piperidin-2-one], the IC50 on human orexin-1 receptor (setting [1]) is 77 nM; on human orexin-2 receptor (setting [1]), 47 nM.
On to `O=C1CCCC(c2ccccc2C(F)(F)F)N1Cc1ccc2ccccc2c1` (stereo not shown) [Example 239, 1-(naphthalen-2-ylmethyl)-6-(2-(trifluoromethyl)phenyl)piperidin-2-one], for which the IC50 at human orexin-1 receptor (setting [1]) is 6420 nM; on human orexin-2 receptor (setting [1]), 3580 nM.
Turning to `COc1cccc(OC)c1C1CCCC(=O)N1Cc1ccc2c(c1)CCCN2` (stereo not shown) [Example 240, 6-(2,6-dimethoxyphenyl)-1-((1,2,3,4-tetrahydroquinolin-6-yl)methyl)piperidin-2-one], the IC50 on human orexin-1 receptor (setting [1]) was 2040 nM; at human orexin-2 receptor (setting [1]), 596 nM.
Take `COc1cccc(OC)c1C1CCCC(=O)N1Cc1ccc2c(ccn2C)c1` (stereo not shown) [Example 241, 6-(2,6-dimethoxyphenyl)-1-((1-methyl-1H-indol-5-yl)methyl)piperidin-2-one]: the IC50 at human orexin-1 receptor (setting [1]) came to 426 nM; on human orexin-2 receptor (setting [1]) it was 275 nM.
`COc1cccc(OC)c1C1CCCC(=O)N1Cc1cn2ccccc2n1` (stereo not shown) [Example 242, 6-(2,6-dimethoxyphenyl)-1-(imidazo[1,2-a]pyridin-2-ylmethyl)piperidin-2-one]: the IC50 on human orexin-1 receptor (setting [1]) came out at 17700 nM; at human orexin-2 receptor (setting [1]), 1390 nM.
For `COc1cccc(OC)c1C1CCCC(=O)N1Cc1ccc2c(c1)nnn2C` (stereo not shown) [Example 243, 6-(2,6-dimethoxyphenyl)-1-((1-methyl-1H-benzo[d][1,2,3]triazol-5-yl)methyl)piperidin-2-one], the IC50 at human orexin-1 receptor (setting [1]) is 10100 nM; on human orexin-2 receptor (setting [1]) it was 311 nM.
Consider `COc1cccc(OC)c1C1CCCC(=O)N1Cc1ccc(-c2ccccc2)cc1` (stereo not shown) [Example 244, 1-([1,1′-biphenyl]-4-ylmethyl)-6-(2,6-dimethoxyphenyl)piperidin-2-one], for which the values for the IC50 at human orexin-1 receptor (setting [1]) and at human orexin-2 receptor (setting [1]) were 1090 nM and 72 nM, respectively.
For the compound `COc1cccc(OC)c1C1CCCC(=O)N1Cc1ccc(N2CCCC2)cc1` (stereo not shown) [Example 245, 6-(2,6-dimethoxyphenyl)-1-(4-(pyrrolidin-1-yl)benzyl)piperidin-2-one], the IC50 on human orexin-1 receptor (setting [1]) is 1070 nM; on human orexin-2 receptor (setting [1]), 132 nM.
For `COc1cccc(OC)c1C1CCCC(=O)N1Cc1ccc(OCC(F)(F)F)cc1` (stereo not shown) [Example 246, 6-(2,6-dimethoxyphenyl)-1-(4-(2,2,2-trifluoroethoxy)benzyl)piperidin-2-one], the IC50 worked out at 665 nM at human orexin-1 receptor (setting [1]) and 11 nM at human orexin-2 receptor (setting [1]).
The corresponding values for `COc1cccc(OC)c1C1CCCC(=O)N1Cc1cc2ccccc2n1C` (stereo not shown) [Example 247, 6-(2,6-dimethoxyphenyl)-1-((1-methyl-1H-indol-2-yl)methyl)piperidin-2-one] are 132 nM and 41 nM.
Turning to `COc1cccc(OC)c1C1CCCC(=O)N1Cc1ccc(S(C)(=O)=O)cc1` (stereo not shown) [Example 248, 6-(2,6-dimethoxyphenyl)-1-(4-(methylsulfonyl)benzyl)piperidin-2-one], the IC50 at human orexin-1 receptor (setting [1]) came to 7250 nM; on human orexin-2 receptor (setting [1]), 1710 nM.
As to `COc1cccc(OC)c1C1CCCC(=O)N1Cc1ccc2oc(C)nc2c1` (stereo not shown) [Example 249, 6-(2,6-dimethoxyphenyl)-1-((2-methylbenzo[d]oxazol-5-yl)methyl)piperidin-2-one], the results for the IC50 at human orexin-1 receptor (compound incubation 120 min) and at human orexin-2 receptor (compound incubation 120 min) were 334 nM and 223 nM, respectively.
Consider `COc1cccc(OC)c1C1CCCC(=O)N1Cc1ccc2sccc2c1` (stereo not shown) [Example 250, 1-(benzo[b]thiophen-5-ylmethyl)-6-(2,6-dimethoxyphenyl)piperidin-2-one], for which the figures for the IC50 on human orexin-1 receptor (setting [1]) and on human orexin-2 receptor (setting [1]) were 204 nM and 140 nM, respectively.
With `CCOc1ccccc1C1CCCC(=O)N1Cc1ccc(OC(F)(F)F)cc1` (stereo not shown) [Example 251, 6-(2-ethoxyphenyl)-1-(4-(trifluoromethoxy)benzyl)piperidin-2-one], the figures for the IC50 at human orexin-1 receptor (setting [1]) and on human orexin-2 receptor (setting [1]) were 4070 nM and 426 nM, respectively.
Turning to `O=C1CCCC(c2ccccc2OC(F)(F)F)N1Cc1ccc(OC(F)(F)F)cc1` (stereo not shown) [Example 252, 1-(4-(trifluoromethoxy)benzyl)-6-(2-(trifluoromethoxy)phenyl)piperidin-2-one], the IC50 on human orexin-1 receptor (setting [1]) turned out to be 9370 nM; on human orexin-2 receptor (setting [1]), 2660 nM.
Consider `COc1cccc(OC)c1C1CC(F)(F)C(=O)N1Cc1ccc(OC(F)(F)F)cc1` (stereo not shown) [Example 256, 5-(2,6-dimethoxyphenyl)-3,3-difluoro-1-(4-(trifluoromethoxy)benzyl)pyrrolidin-2-one], for which the IC50 came out at 193 nM at human orexin-1 receptor (setting [1]) and 133 nM on human orexin-2 receptor (setting [1]).
Take `COc1cccc(OC)c1C1COCC(=O)N1Cc1ccc(OC(F)(F)F)cc1` (stereo not shown) [Example 266, 5-(2,6-dimethoxyphenyl)-4-(4-(trifluoromethoxy)benzyl)morpholin-3-one]: the IC50 on human orexin-1 receptor (setting [1]) was 412 nM; at human orexin-2 receptor (setting [1]), 86 nM.
Turning to `COc1cccc(OC)c1C1CNCC(=O)N1Cc1ccc(OC(F)(F)F)cc1` (stereo not shown) [Example 267, 6-(2,6-dimethoxyphenyl)-1-(4-(trifluoromethoxy)benzyl)piperazin-2-one], the half-inhibitory concentration (IC50) on human orexin-1 receptor (setting [1]) was found to be 2680 nM; at human orexin-2 receptor (setting [1]), 589 nM.
The corresponding values for `COc1cccc(OC)c1C1CN(C)CC(=O)N1Cc1ccc(OC(F)(F)F)cc1` (stereo not shown) [Example 268, 6-(2,6-dimethoxyphenyl)-4-methyl-1-(4-(trifluoromethoxy)benzyl)piperazin-2-one] are 1270 nM and 410 nM.
For `COc1ncnc(OC)c1C1CCCC(=O)N1Cc1cccc(-c2csc(C)n2)c1` (stereo not shown) [Example 269, 6-(4,6-dimethoxypyrimidin-5-yl)-1-(3-(2-methylthiazol-4-yl)benzyl)piperidin-2-one], the IC50 at human orexin-1 receptor (compound incubation 120 min) turned out to be 1030 nM; on human orexin-2 receptor (compound incubation 120 min), 619 nM.
Turning to `COc1ncnc(OC)c1C1CCCC(=O)N1Cc1cccc(-c2ccccc2)c1` (stereo not shown) [Example 270, 1-([1,1′-biphenyl]-3-ylmethyl)-6-(4,6-dimethoxypyrimidin-5-yl)piperidin-2-one], the IC50 is 568 nM on human orexin-1 receptor (compound incubation 120 min) and 412 nM at human orexin-2 receptor (compound incubation 120 min).
Consider `COc1ncnc(OC)c1C1CCCC(=O)N1Cc1csc(-c2ccccc2)n1` (stereo not shown) [Example 271, 6-(4,6-dimethoxypyrimidin-5-yl)-1-((2-phenylthiazol-4-yl)methyl)piperidin-2-one], for which the results for the IC50 on human orexin-1 receptor (compound incubation 120 min) and at human orexin-2 receptor (compound incubation 120 min) were 5690 nM and 256 nM, respectively.
`Cc1nc(-c2cccc(CN3C(=O)CCCC3c3cccc4c3OCCO4)c2)cs1` (stereo not shown) [Example 272, 6-(2,3-dihydrobenzo[b][1,4]dioxin-5-yl)-1-(3-(2-methylthiazol-4-yl)benzyl)piperidin-2-one]: the values for the IC50 on human orexin-1 receptor (compound incubation 120 min) and at human orexin-2 receptor (compound incubation 120 min) were 510 nM and 229 nM, respectively.
As to `O=C1CCCC(c2cccc3c2OCCO3)N1Cc1cccc(-c2ccccc2)c1` (stereo not shown) [Example 273, 1-([1,1′-biphenyl]-3-ylmethyl)-6-(2,3-dihydrobenzo[b][1,4]dioxin-5-yl)piperidin-2-one], the IC50 is 795 nM on human orexin-1 receptor (compound incubation 120 min) and 296 nM on human orexin-2 receptor (compound incubation 120 min).
In the case of `COc1cncc(OC)c1C1CCCCC(=O)N1Cc1cccc(-c2csc(C)n2)c1` (stereo not shown) [Example 274, 7-(3,5-dimethoxypyridin-4-yl)-1-(3-(2-methylthiazol-4-yl)benzyl)azepan-2-one], the figures for the IC50 at human orexin-1 receptor (compound incubation 120 min) and at human orexin-2 receptor (compound incubation 120 min) were 23 nM and 64 nM, respectively.
For the compound `COc1cncc(OC)c1C1CCCCC(=O)N1Cc1cccc(-c2ccccc2)c1` (stereo not shown) [Example 275, 1-([1,1′-biphenyl]-3-ylmethyl)-7-(3,5-dimethoxypyridin-4-yl)azepan-2-one], the IC50 was found to be 50 nM on human orexin-1 receptor (compound incubation 120 min) and 80 nM on human orexin-2 receptor (compound incubation 120 min).
As for `COc1cncc(OC)c1C1CCCCC(=O)N1Cc1ccc2c(c1)c1ccccc1n2C` (stereo not shown) [Example 276, 7-(3,5-dimethoxypyridin-4-yl)-1-((9-methyl-9H-carbazol-3-yl)methyl)azepan-2-one], the IC50 was determined as 347 nM at human orexin-1 receptor (compound incubation 120 min) and 222 nM on human orexin-2 receptor (compound incubation 120 min).
Consider `COc1cncc(OC)c1C1CCCCC(=O)N1Cc1csc(-c2ccccc2)n1` (stereo not shown) [Example 277, 7-(3,5-dimethoxypyridin-4-yl)-1-((2-phenylthiazol-4-yl)methyl)azepan-2-one], for which the IC50 on human orexin-1 receptor (compound incubation 120 min) is 214 nM; on human orexin-2 receptor (compound incubation 120 min), 182 nM.
As for `COc1cccc(OC)c1C1CCCC(=O)N1Cc1csc(Oc2ccccc2)n1` (stereo not shown) [Example 278, 6-(2,6-dimethoxyphenyl)-1-((2-phenoxythiazol-4-yl)methyl)piperidin-2-one], the values for the IC50 at human orexin-1 receptor (compound incubation 120 min) and at human orexin-2 receptor (compound incubation 120 min) were 250 nM and 172 nM, respectively.
On to `COc1ccc2nc(C)oc2c1C1CCCC(=O)N1Cc1ccc2ccccc2n1` (stereo not shown) [Example 279, 6-(6-methoxy-2-methylbenzo[d]oxazol-7-yl)-1-(quinolin-2-ylmethyl)piperidin-2-one], for which the IC50 at human orexin-1 receptor (compound incubation 120 min) was determined as 623 nM; at human orexin-2 receptor (compound incubation 120 min), 1030 nM.
Regarding `COc1ccc2ncoc2c1C1CCCC(=O)N1Cc1ccc2ccccc2n1` (stereo not shown) [Example 280, 6-(6-methoxybenzo[d]oxazol-7-yl)-1-(quinolin-2-ylmethyl)piperidin-2-one], the values for the IC50 at human orexin-1 receptor (compound incubation 120 min) and on human orexin-2 receptor (compound incubation 120 min) were 1820 nM and 1800 nM, respectively.
With `COc1ccc(Cl)c(OC)c1C1CCCC(=O)N1Cc1cccc(-c2csc(C)n2)c1` (stereo not shown) [Example 281, 6-(3-chloro-2,6-dimethoxyphenyl)-1-(3-(2-methylthiazol-4-yl)benzyl)piperidin-2-one], the values for the IC50 on human orexin-1 receptor (compound incubation 120 min) and on human orexin-2 receptor (compound incubation 120 min) were 42 nM and 115 nM, respectively.
For `COc1cccc(OC)c1C1CCC(=O)N1Cc1ccc(Oc2nccs2)cc1` (stereo not shown) [Example 282, 5-(2,6-dimethoxyphenyl)-1-(4-(thiazol-2-yloxy)benzyl)pyrrolidin-2-one], the IC50 came out at 139 nM on human orexin-1 receptor (compound incubation 120 min) and 213 nM at human orexin-2 receptor (compound incubation 120 min).

(Values after US9242970B2 (ACTELION PHARMACEUTICALS LTD., priority 2010, dated 2016).)
